According to patent US20210183467A1, “SYSTEM AND METHOD FOR USING MICROBIOME TO DE-RISK DRUG DEVELOPMENT” (YALE UNIVERSITY, priority 2018, published 2021):
Blank lines part the entries; values can stand above or below the compound they belong to.

Tests used:
[1] = system: human gut microbiome samples; assay: Combinatorial drug pools incubated with human gut microbiome samples, LC-qTOF MS; assay type: in vitro ADME; details: for metabolism by the human gut microbiome (log2 fold change in amount of drug): 11 individuals randomly selected from the 60 studied, time span of 24 hours
Source text: Beginning with the 1,760 FDA-approved drugs in the MicroSource Pharmakon library, a single UHPLC-qTOF MS method was optimized (C18 column; methanol:water gradient; positive ionization mode) that maximizes the number of detected drugs while minimizing run time. […] These drugs, whose molecular weights vary from ˜155 to ˜800 Da, span a wide range of clinical indications. Many have limited or highly variable bioavailability. Other criteria (specific chemical groups, bioavailability, etc) may be used to select other reference drugs, or drugs may be selected from pre-clinical compound libraries. A computational simulation was performed to determine the number of inputs (drugs) that can be represented in increasing numbers of pools, as a function of changing parameters for replicates and overlap. One such pooling scheme assigns each of 271 drugs to a subset of 21 pools, such that each drug is placed in 4 pools but shares a pool with each other drug at most twice as shown in FIG. 5B. FIG. 5B illustrates combinatorial pooling of 271 drugs indicated in black circles into 21 pools (A-U). Pools V-X are no-drug controls. Other pooling schemes may alter the number of drugs, the number of pools, the number of pools each drug is placed in, or the overlap between the pooling patterns of each drug. […] Each of these pools was incubated with each of 60 human gut microbiome samples and 76 defined bacterial species/strains. Samples were collected over time. Liquid chromatography-coupled quadrupole time-of-flight mass spectrometry (MS) described above was used to quantify drug levels by targeted analysis. For each candidate drug-microbiome interaction, 4 pools provide quadruplicate replication for each drug in 4 distinct contexts of other drugs. The other pools serve as negative controls. In this manner, over 16,000 time-series profiles (271 drugs by 60 communities) were collected, each in quadruplicate, from only 21 drug pools.

[2] = patients taking 5-fluorouracil; before withdrawal from the market; cited from earlier work
[3] = Liver S9 enzyme assay of conversion to BVU; assay type: in vitro ADME
Protocol: Human and murine S9 liver fractions are purchased from Thermo Fisher Scientific (HMS9L and MSMCPL, respectively). Enzyme assays are performed for the deglycosylation of arabinosyluracil derivatives. In brief, assays are performed at 37° C. Reaction volumes are 150 μL with liver S9 fractions at 5 μg/μL and BRV or SRV at 100 μM in 10 mM phosphate buffer (pH 7.4). Reactions are initiated by addition of drugs to pre-warmed reaction mixture. 10 μL samples are collected and quenched in 10 μL acetonitrile on ice at 0, 5, 10, 15, 20, 30, 45, 60, 90, 120, 180, 270, and 360 min after initiation. Substrates and reaction product are extracted and quantified by LC-MS as described below.

BT4554 = assay: B. thetaiotaomicron loss-of-function screen, bt4554 deletion and complementation; assay type: in vitro ADME, Bacteroides thetaiotaomicron; details: BT4554 dependence
Source text: Two independent strategies were developed to identify the microbiome-encoded DMEs responsible for these chemical transformations. For members of the Bacteroides (the most prominent genus in the human gut microbiome in the experiments), Proteobacteria, and other genetically tractable species, Insertion Sequencing (INSeq) is used to make mapped, arrayed transposon mutant libraries as described in Goodman 2009 and Goodman 2011. From these libraries, a representative set of mutants was identified that collectively include disruptions in most non-essential genes. Each mutant was incubated with the pool of drugs metabolized by the parent species. Genes required for drug metabolism by LC-MS were identified as above.
1,352 B. thetaiotaomicron mutants were selected from an arrayed library as described in Goodman 2009 that disrupt ˜70% of its non-essential genes. Each mutant was incubated with a pool of 30 drugs metabolized by this organism. Drug levels were measured over time as above. […] FIGS. 10A-C show two examples: one of these is brivudine, an antiviral whose primary metabolite (bromovinyluracil; BVU) is dangerously toxic for patients taking 5-fluorouracil, a principal therapy for colorectal cancer. With reference to FIGS. 10A-C, transposon mutants representing disruptions in 70% of B. thetaiotaomicron (Bt) non-essential genes were screened for metabolism of 30 drugs targeted by the parent strain.
The contribution of microbial drug metabolism to serum drug and metabolite exposure was directly quantified by specifically modulating this activity in otherwise identical mice. To this end, the capacity of ten individual bacterial species was first determined, representing five major phyla that dominate the mammalian gut microbiota, for their capacity to convert BRV to BVU as illustrated in FIG. 14A. […]
Frozen stocks are re-suspended in 4 mL pre-reduced GMM and incubated anaerobically at 37° C. for 14 h. […] Substrates and reaction product are extracted and quantified by LC-MS as described below. […]

[4] = system: 76 defined human gut commensals; assay type: in vitro ADME
Protocol: Using the combinatorial pooling method described above, each of the 21 drug pools was incubated, plus 3 no-drug control pools, with 76 defined human gut commensals from phyla shown in FIG. 8 grown in pure culture. Over 20,000 time-series profiles were collected, each in quadruplicate, of these specific drug-microbe interactions.

Structure (SMILES): CC(=O)OCC(CCn1cnc2cnc(N)nc21)COC(C)=O [Famcyclovir]
metabolism by the human gut microbiome (log2 fold change in amount of drug) [1]: metabolized by the human gut microbiome

Structure (SMILES): Cc1nc2n(c(=O)c1CCN1CCC(c3noc4cc(F)ccc34)CC1)CCCC2 [risperidone]
metabolism by the human gut microbiome (log2 fold change in amount of drug) [1]: metabolized by the human gut microbiome

conversion of SRV to BVU ([3]; human S9 liver fractions): slowly converted
conversion of SRV to BVU ([3]; murine S9 liver fractions): slowly converted
Structure (SMILES): O=c1[nH]c(=O)n([C@@H]2O[C@H](CO)[C@@H](O)[C@@H]2O)cc1/C=C/Br [SRV, sorivudine]
patients killed by BVU from the drug [2]: 18 patients
conversion of SRV to BVU by B. thetaiotaomicron (BT4554): slowly converts SRV to BVU in a BT4554-dependent manner

Structure (SMILES): CC(=O)OCC(=O)[C@@]12N=C(C)O[C@@H]1C[C@H]1[C@@H]3CCC4=CC(=O)C=C[C@]4(C)[C@H]3[C@@H](O)C[C@@]12C [deflazacort]
metabolism by individual species [4]: most of the fast metabolizers of this drug are Bacteroides

Structure (SMILES): COc1ccc(/C=C/C(=O)Nc2ccccc2C(=O)O)cc1OC [tranilast]
interpersonal variability of metabolism by gut microbiome [1]: one individual that metabolized the drug to a much greater extent than the others
metabolism by the human gut microbiome (log2 fold change in amount of drug) [1]: metabolized by the human gut microbiome
